Results from US11485742B2, “2-azaspiro[3.4]octane derivatives as M4 agonists” (NOVARTIS AG, priority 2019, dated 2022).

Molecular target: T1, human cloned CHRM3 receptor (Homo sapiens, UniProt P20309)
T1 construct: expressed in transfected cells; host or cells: CHO-K1 (M3_CHO)
Assay: CHRM3 Ca++ Flux Assay (M3_CHO cells, agonist mode)
Format: cell-based
Details: for Emax: Percent Activity (PA) measured to EC100 of Carbachol, read-out: M3 FDSS PA %; for EC50: agonist mode, geometric mean if tested more than once, read-out: M3 FDSS EC50
Summary of the method: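 Agonist-mode calcium mobilisation: compounds, 11 concentrations in triplicate, applied to stable M3_CHO or M5_CHO cells loaded with Ca++ dye, fluorescence followed 3 min. Efficacy expressed against carbachol EC100; EC curves by four-parameter nonlinear regression, geometric mean across independent runs.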

T1 sequence (P20309 whole entry): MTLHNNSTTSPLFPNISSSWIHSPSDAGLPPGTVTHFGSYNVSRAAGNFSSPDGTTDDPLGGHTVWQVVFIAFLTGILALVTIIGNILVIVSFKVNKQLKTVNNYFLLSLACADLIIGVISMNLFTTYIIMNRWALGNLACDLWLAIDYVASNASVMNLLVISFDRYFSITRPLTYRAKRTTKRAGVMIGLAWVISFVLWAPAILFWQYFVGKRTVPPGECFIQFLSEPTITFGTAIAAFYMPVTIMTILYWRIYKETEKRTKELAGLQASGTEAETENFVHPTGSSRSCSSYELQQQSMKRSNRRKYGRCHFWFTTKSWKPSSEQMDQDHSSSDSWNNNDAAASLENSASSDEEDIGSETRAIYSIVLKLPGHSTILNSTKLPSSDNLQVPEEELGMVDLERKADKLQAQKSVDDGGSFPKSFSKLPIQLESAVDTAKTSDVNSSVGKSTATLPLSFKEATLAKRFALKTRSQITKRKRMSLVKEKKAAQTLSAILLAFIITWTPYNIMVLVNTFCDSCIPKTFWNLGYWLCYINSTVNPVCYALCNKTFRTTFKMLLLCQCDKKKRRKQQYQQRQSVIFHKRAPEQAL

Row | Emax | EC50 | Compound
1 | 0% | > 25 µM | Fc1ccc(OC2COC2)c(C2CCN([C@@H]3COC4(C3)CN(c3nnco3)C4)CC2)c1 [Example 1A, (S)-7-(4-(5-fluoro-2-(oxetan-3-yloxy)phenyl)piperidin-1-yl)-2-(1,3,4-oxadiazol-2-yl)-5-oxa-2-azaspiro[3.4]octane]
2 | 0% | > 25 µM | Fc1ccc(OC[C@H]2CCOC2)c(C2CCN([C@@H]3COC4(C3)CN(c3nnco3)C4)CC2)c1 [Example 1I, (S)-7-(4-(5-fluoro-2-(((S)-tetrahydrofuran-3-yl)methoxy)phenyl)piperidin-1-yl)-2-(1,3,4-oxadiazol-2-yl)-5-oxa-2-azaspiro[3.4]octane]
3 | 0% | > 25 µM | Fc1ccc(OCC2CCOCC2)c(C2CCN([C@@H]3COC4(C3)CN(c3nnco3)C4)CC2)c1 [Example 1J, (S)-7-(4-(5-fluoro-2-((tetrahydro-2H-pyran-4-yl)methoxy)phenyl)piperidin-1-yl)-2-(1,3,4-oxadiazol-2-yl)-5-oxa-2-azaspiro[3.4]octane]
4 | 0% | > 25 µM | COCCOc1ccc(F)cc1C1CCN([C@@H]2COC3(C2)CN(c2nnco2)C3)CC1 [Example 1L, (S)-7-(4-(5-fluoro-2-(2-methoxyethoxy)phenyl)piperidin-1-yl)-2-(1,3,4-oxadiazol-2-yl)-5-oxa-2-azaspiro[3.4]octane]
5 | 0% | > 25 µM | Fc1ccc(OC2COCOC2)c(C2CCN([C@@H]3COC4(C3)CN(c3nnco3)C4)CC2)c1 [Example 1M, (S)-7-(4-(2-((1,3-dioxan-5-yl)oxy)-5-fluorophenyl)piperidin-1-yl)-2-(1,3,4-oxadiazol-2-yl)-5-oxa-2-azaspiro[3.4]octane]
6 | 0% | > 25 µM | CC(C)(O)CCOc1ccc(F)cc1C1CCN([C@@H]2COC3(C2)CN(c2nnco2)C3)CC1 [Example 1N, (S)-4-(2-(1-(2-(1,3,4-oxadiazol-2-yl)-5-oxa-2-azaspiro[3.4]octan-7-yl)piperidin-4-yl)-4-fluorophenoxy)-2-methylbutan-2-ol]
7 | 0% | > 25 µM | c1ccc(C2CCN([C@@H]3COC4(C3)CN(c3nnco3)C4)CC2)c(O[C@@H]2CCOC2)c1 [Example 1O, (S)-2-(1,3,4-oxadiazol-2-yl)-7-(4-(2-(((R)-tetrahydrofuran-3-yl)oxy)phenyl)piperidin-1-yl)-5-oxa-2-azaspiro[3.4]octane]
8 | 0% | > 25 µM | c1ccc(C2CCN([C@@H]3COC4(C3)CN(c3nnco3)C4)CC2)c(OC2COC2)c1 [Example 1P, (S)-2-(1,3,4-oxadiazol-2-yl)-7-(4-(2-(oxetan-3-yloxy)phenyl)piperidin-1-yl)-5-oxa-2-azaspiro[3.4]octane]
9 | 0% | > 25 µM | COc1ccccc1C1CCN([C@@H]2COC3(C2)CN(c2nnco2)C3)CC1 [Example 1Q, (S)-7-(4-(2-methoxyphenyl)piperidin-1-yl)-2-(1,3,4-oxadiazol-2-yl)-5-oxa-2-azaspiro[3.4]octane]
10 | 0% | > 25 µM | Fc1cc(O[C@@H]2CCOC2)c(C2CCN([C@@H]3COC4(C3)CN(c3nnco3)C4)CC2)cc1F [Example 1R, (S)-7-(4-(4,5-difluoro-2-(((R)-tetrahydrofuran-3-yl)oxy)phenyl)piperidin-1-yl)-2-(1,3,4-oxadiazol-2-yl)-5-oxa-2-azaspiro[3.4]octane]
11 | 0% | > 25 µM | COc1cc(F)ccc1C1CCN([C@@H]2COC3(C2)CN(c2nnco2)C3)CC1 [Example 1S, (S)-7-(4-(4-fluoro-2-methoxyphenyl)piperidin-1-yl)-2-(1,3,4-oxadiazol-2-yl)-5-oxa-2-azaspiro[3.4]octane]
12 | 0% | > 25 µM | CC(C)(O)CCOc1cc(F)ccc1C1CCN([C@@H]2COC3(C2)CN(c2nnco2)C3)CC1 [Example 1T, (S)-4-(2-(1-(2-(1,3,4-oxadiazol-2-yl)-5-oxa-2-azaspiro[3.4]octan-7-yl)piperidin-4-yl)-5-fluorophenoxy)-2-methylbutan-2-ol]
13 | 0% | > 25 µM | CC(C)(O)COc1ccc(F)cc1C1CCN([C@@H]2COC3(C2)CN(c2nnco2)C3)CC1 [Example 1U, (S)-1-(2-(1-(2-(1,3,4-oxadiazol-2-yl)-5-oxa-2-azaspiro[3.4]octan-7-yl)piperidin-4-yl)-4-fluorophenoxy)-2-methylpropan-2-ol]
14 | 0% | > 25 µM | COc1ccc(F)cc1C1CCN([C@@H]2COC3(C2)CN(c2nnco2)C3)CC1 [Example 1V, (S)-7-(4-(5-fluoro-2-methoxyphenyl)piperidin-1-yl)-2-(1,3,4-oxadiazol-2-yl)-5-oxa-2-azaspiro[3.4]octane]
15 | 0% | > 25 µM | c1ccc(C2CCN([C@@H]3COC4(C3)CN(c3nnco3)C4)CC2)c(-c2cncnc2)c1 [Example 1W, (S)-2-(1,3,4-oxadiazol-2-yl)-7-(4-(2-(pyrimidin-5-yl)phenyl)piperidin-1-yl)-5-oxa-2-azaspiro[3.4]octane]
16 | 0% | > 25 µM | c1ccc(C2CCN([C@@H]3COC4(C3)CN(c3nnco3)C4)CC2)c(-c2ncco2)c1 [Example 1X, (S)-2-(1,3,4-oxadiazol-2-yl)-7-(4-(2-(oxazol-2-yl)phenyl)piperidin-1-yl)-5-oxa-2-azaspiro[3.4]octane]
17 | 0% | > 25 µM | Cc1nnc(-c2ccccc2C2CCN([C@@H]3COC4(C3)CN(c3nnco3)C4)CC2)o1 [Example 1Y, (S)-7-(4-(2-(5-methyl-1,3,4-oxadiazol-2-yl)phenyl)piperidin-1-yl)-2-(1,3,4-oxadiazol-2-yl)-5-oxa-2-azaspiro[3.4]octane]
18 | 0% | > 25 µM | Fc1ccc(OCC2COC2)c(C2CCN([C@@H]3COC4(C3)CN(c3nncs3)C4)CC2)c1 [Example 2A, (S)-7-(4-(5-fluoro-2-(oxetan-3-ylmethoxy)phenyl)piperidin-1-yl)-2-(1,3,4-thiadiazol-2-yl)-5-oxa-2-azaspiro[3.4]octane]
19 | 0% | > 25 µM | CC1(COc2ccc(F)cc2C2CCN([C@@H]3COC4(C3)CN(c3nncs3)C4)CC2)COC1 [Example 2B, (S)-7-(4-(5-fluoro-2-((3-methyloxetan-3-yl)methoxy)phenyl)piperidin-1-yl)-2-(1,3,4-thiadiazol-2-yl)-5-oxa-2-azaspiro[3.4]octane]
20 | 0% | > 25 µM | Cc1nnc(COc2ccc(F)cc2C2CCN([C@@H]3COC4(C3)CN(c3nnco3)C4)CC2)s1 [Example 2E, (S)-7-(4-(5-fluoro-2-((5-methyl-1,3,4-thiadiazol-2-yl)methoxy)phenyl)piperidin-1-yl)-2-(1,3,4-oxadiazol-2-yl)-5-oxa-2-azaspiro[3.4]octane]
21 | 0% | > 25 µM | Cc1nnc(COc2ccc(F)cc2C2CCN([C@@H]3COC4(C3)CN(c3nnco3)C4)CC2)o1 [Example 2F, (S)-7-(4-(5-fluoro-2-((5-methyl-1,3,4-oxadiazol-2-yl)methoxy)phenyl)piperidin-1-yl)-2-(1,3,4-oxadiazol-2-yl)-5-oxa-2-azaspiro[3.4]octane]

Row | Compound | Emax | EC50
22 | COC(C)(C)CCOc1ccc(F)cc1C1CCN([C@@H]2COC3(C2)CN(c2nnco2)C3)CC1 [Example 1K, (S)-7-(4-(5-fluoro-2-(3-methoxy-3-methylbutoxy)phenyl)piperidin-1-yl)-2-(1,3,4-oxadiazol-2-yl)-5-oxa-2-azaspiro[3.4]octane] | 0% | > 25 µM
